Results published in US10669268B2, “Bicyclic derivatives” (Hoffmann-La Roche Inc., priority 2012, dated 2020).

target: ATX (human His-tagged) (Homo sapiens (Human), UniProt Q13822); assay: Human ATX enzyme inhibition assay (fluorescence quenching, MR121 substrate); format: biochemical; conditions: 30 nM ATX, 1 μM MR121 substrate, 30° C., pH 8.0
Procedure, shortened: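 Tris-HCl buffer at pH 8.0 contained 140 mM NaCl, 5 mM KCl, 1 mM each CaCl2 and MgCl2, and 0.01% Triton X-100. The MR121 substrate (1 μM final) was incubated with enzyme for 15 min at 30 °C, and activity was read by fluorescence quenching.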

IC50 [µM]	SMILES
0.014	CC(C)c1cc(C#N)ccc1OCC(=O)N1CC[C@@H]2CN(C(=O)c3ccc4[nH]nnc4c3)C[C@@H]2CC1 [Example 1.43, 4-[2-[(3aS,8aR)-2-(1H-benzotriazole-5-carbonyl)-1,3,3a,4,5,7,8,8a-octahydropyrrolo[3,4-d]azepin-6-yl]-2-oxoethoxy]-3-propan-2-ylbenzonitrile]
7.46	Cc1ccc(OCC(=O)N2CC[C@@H]3CN(C(=O)c4ccc5[nH]nnc5c4)C[C@@H]3CC2)c(C2CCN(C)C2)c1 (stereo partly drawn) [Example 1.36, 1-[(3aS,8aR)-2-(1H-benzotriazole-5-carbonyl)-octahydro-pyrrolo[3,4-d]azepin-6-yl]-2-[4-methyl-2-(1-methyl-pyrrolidin-3-yl)-phenoxy]-ethanone]
2.81	O=C(OCc1cc(Cl)cc(Cl)c1)N1C[C@H]2CN(Cc3ccc4[nH]ncc4c3)C[C@H]2C1 [Example 6.02]
0.002	CC(C)c1cc(C#N)ccc1CCC(=O)N1C[C@@H]2CN(C(=O)c3ccc4[nH]nnc4c3)C[C@H]2C1 [Example 19.22, 4-[3-[(3aR,6aR)-5-(1H-benzotriazole-5-carbonyl)-1,3,3a,4,6,6a-hexahydropyrrolo[3,4-c]pyrrol-2-yl]-3-oxopropyl]-3-propan-2-ylbenzonitrile]
0.248	O=C(OCc1cc(Cl)cc(Cl)c1)N1C[C@H]2C[C@@H](Nc3ccc4[nH]c(=O)oc4c3)C[C@H]2C1 [Example 5, (3aR,5r,6aS)-3,5-Dichlorobenzyl 5-(2-oxo-2,3-dihydrobenzo[d]oxazol-6-ylamino)hexahydrocyclopenta[c]pyrrole-2(1H)-carboxylate]
0.247	O=C(/C=C/c1ccc(OC(F)(F)F)cc1)N1CC[C@@H]2CN(C(=O)N3CCc4[nH]cnc4C3)C[C@@H]2CC1 [Example 9.06]
0.01	O=C(c1cnc(OCC(F)(F)F)c(C2CC2)c1)N1C[C@@H]2CN(C(=O)c3ccc4[nH]nnc4c3)C[C@H]2C1 [Example 19.42, ((3aS,6aS)-5-(1H-benzo[d][1,2,3]triazole-5-carbonyl)hexahydropyrrolo[3,4-c]pyrrol-2(1H)-yl)(5-cyclopropyl-6-(2,2,2-trifluoroethoxy)pyridin-3-yl)methanone]
0.006	O=C(/C=C/c1ccc(OC(F)(F)F)cc1)N1CC[C@@H]2CN(C(=O)c3ccc4[nH]c(=O)oc4c3)C[C@@H]2CC1 [Example 2.02, 6-{(3aS,8aR)-6-[(E)-3-(4-trifluoromethoxy-phenyl)-acryloyl]-octahydro-pyrrolo[3,4-d]azepine-2-carbonyl}-3H-benzooxazol-2-one]
0.005	CC(C)(C)c1cc(Br)ccc1OCC(=O)N1C[C@@H]2CN(C(=O)c3ccc4[nH]nnc4c3)C[C@H]2C1 [Example 19.30, 1-[(3aS,6aS)-5-(1H-benzotriazole-5-carbonyl)-1,3,3a,4,6,6a-hexahydropyrrolo[3,4-c]pyrrol-2-yl]-2-(4-bromo-2-tert-butylphenoxy)ethanone]
4.42	O=C(/C=C/c1ccncc1)N1CC[C@@H]2CN(C(=O)c3ccc4[nH]nnc4c3)C[C@@H]2CC1 [Example 15.28]
0.012	O=C(/C=C/c1ccc(OC(F)(F)F)cc1)N1C[C@H]2CCN(C(=O)c3ccc4[nH]nnc4c3)C[C@@H]2C1 [Example 15.74]
0.005	O=C(/C=C/c1ccc(OC(F)(F)F)cc1)N1CC[C@@H]2CN(C(=O)[C@@H]3CCc4[nH]nnc4C3)C[C@@H]2CC1 [Example 1.21, (E)-1-[(3aS,8aR)-2-((R)-4,5,6,7-tetrahydro-1H-benzotriazole-5-carbonyl)-octahydro-pyrrolo[3,4-d]azepin-6-yl]-3-(4-trifluoromethoxy-phenyl)-prop-2-en-1-one]
0.006	O=C(/C=C/c1ccc(OC(F)(F)F)cc1)N1C[C@@H]2CN(C(=O)c3ccc4[nH]nnc4c3)C[C@H]2C1 [Example 15.12]
0.007	CC(C)c1cc2c(cc1OCC(=O)N1CC[C@@H]3CN(C(=O)c4ccc5[nH]nnc5c4)C[C@@H]3CC1)C(C)(C)CC2 [Example 1.39, 1-((3aR,8aS)-2-(1H-benzo[d][1,2,3]triazole-5-carbonyl)octahydropyrrolo[3,4-d]azepin-6(7H)-yl)-2-(6-isopropyl-3,3-dimethyl-2,3-dihydro-1H-inden-5-yloxy)ethanone]
0.017	O=C(OCc1cc(F)cc(OC(F)(F)F)c1)N1C[C@@H]2CN(C(=O)c3ccc4[nH]nnc4c3)C[C@@H]2C1 [Example 4.23, (3aS,6aR)-5-(1H-benzotriazole-5-carbonyl)-hexahydro-pyrrolo[3,4-c]pyrrole-2-carboxylic acid 3-fluoro-5-trifluoromethoxy-benzyl ester]
0.004	Cc1cc(COC(=O)N2C[C@@H]3CN(C(=O)[C@@H]4CCc5[nH]nnc5C4)C[C@H]3C2)c(C(C)C)cc1C#N [Example 4.47, (3aS,6aS)-5-((R)-4,5,6,7-tetrahydro-1H-benzotriazole-5-carbonyl)-hexahydro-pyrrolo[3,4-c]pyrrole-2-carboxylic acid 4-cyano-2-isopropyl-5-methyl-benzyl ester]
0.083	O=C(/C=C/c1ccc(OC(F)(F)F)cc1)N1CC[C@@H]2CN(C(=O)[C@H]3CCc4[nH]nnc4C3)C[C@@H]2CC1 [Example 1.20, (E)-1-[(3aS,8aR)-2-((S)-4,5,6,7-tetrahydro-1H-benzotriazole-5-carbonyl)-octahydro-pyrrolo[3,4-d]azepin-6-yl]-3-(4-trifluoromethoxy-phenyl)-prop-2-en-1-one]
0.008	CCOc1cc(Cl)c(F)cc1COC(=O)N1C[C@@H]2CN(C(=O)c3ccc4[nH]nnc4c3)C[C@H]2C1 [Example 4.67, (3aS,6aS)-5-(1H-benzotriazole-5-carbonyl)-hexahydro-pyrrolo[3,4-c]pyrrole-2-carboxylic acid 4-chloro-2-ethoxy-5-fluoro-benzyl ester]
0.046	CS(=O)(=O)c1cc(Cl)cc(COC(=O)N2C[C@@H]3CN(C(=O)c4ccc5[nH]nnc5c4)C[C@@H]3C2)c1 [Example 4.04, (3aS,6aR)-5-(1H-benzotriazole-5-carbonyl)-hexahydro-pyrrolo[3,4-c]pyrrole-2-carboxylic acid 3-chloro-5-methanesulfonyl-benzyl ester]
0.149	O=C1N[C@@H]2CCN(C(=O)N3C[C@H]4CCN(C(=O)/C=C/c5ccc(OC(F)(F)F)cc5)CC[C@H]4C3)C[C@H]2O1 [Example 8.05]
0.651	O=C(/C=C/c1ccc(OC(F)(F)F)cc1)N1CC[C@@H]2CN(C(=O)c3ccc4nonc4c3)C[C@@H]2CC1 [Example 1.17, (E)-1-[(3aS,8aR)-2-(benzo[c][1,2,5]oxadiazole-5-carbonyl)-octahydro-pyrrolo[3,4-d]azepin-6-yl]-3-(4-trifluoromethoxy-phenyl)-prop-2-en-1-one]
0.009	O=C(/C=C/c1ccc(Cl)cc1)N1C[C@H]2CCN(C(=O)c3ccc4[nH]nnc4c3)CC[C@H]2C1 [Example 15.19]
0.186	O=C(/C=C/c1ccc(OC(F)(F)F)cc1)N1CC[C@@H]2CN(C(=O)N3CCc4[nH]ncc4C3)C[C@@H]2CC1 [Example 8.02]
0.012	O=C(CCc1ccccc1C1CC1)N1CC[C@@H]2CN(C(=O)c3ccc4[nH]nnc4c3)C[C@@H]2CC1 [Example 17.19, 1-((3aR,8aS)-2-(1H-benzo[d][1,2,3]triazole-5-carbonyl)octahydropyrrolo[3,4-d]azepin-6(7H)-yl)-3-(2-cyclopropylphenyl)propan-1-one]
0.058	CS(=O)(=O)c1cc(Cl)cc(COC(=O)N2CC[C@@H]3CN(C(=O)c4ccc5[nH]nnc5c4)C[C@H]3C2)c1 (relative stereo) [Example 1.23, trans-2-(1H-benzotriazole-5-carbonyl)-octahydro-pyrrolo[3,4-c]pyridine-5-carboxylic acid 3-chloro-5-methanesulfonyl-benzyl ester]
0.009	O=C(OCc1cc(Cl)cc(Cl)c1)N1CC[C@@H]2CN(C(=O)c3ccc4[nH]nnc4c3)C[C@H]2C1 (single isomer, unassigned) [Example 11B, trans-3,5-dichlorobenzyl 2-(1H-benzo[d][1,2,3]triazole-5-carbonyl)-hexahydro-1H-pyrrolo[3,4-c]pyridine-5(6H)-carboxylate]
0.006	O=C(CCc1ccc(F)cc1C(F)(F)F)N1CC[C@@H]2CN(C(=O)c3ccc4[nH]nnc4c3)C[C@@H]2CC1 [Example 17.05, 1-((3aR,8aS)-2-(1H-benzo[d][1,2,3]triazole-5-carbonyl)octahydropyrrolo[3,4-d]azepin-6(7H)-yl)-3-(4-fluoro-2-(trifluoromethyl)phenyl)propan-1-one]
0.218	O=C(OCc1ccc(OC(F)(F)F)cc1)N1C[C@@H]2CN(C(=O)c3cnc4[nH]nnc4c3)C[C@H]2C1 [Example 1.49, (3aS,6aS)-5-(3H-[1,2,3]triazolo[4,5-b]pyridine-6-carbonyl)-hexahydro-pyrrolo[3,4-c]pyrrole-2-carboxylic acid 4-trifluoromethoxy-benzyl ester]
0.13	O=C(/C=C/c1ccc(OC(F)(F)F)cc1)N1C[C@@H]2CN(C(=O)C3CCc4[nH]nnc4C3)C[C@@H]2C1 (stereo partly shown) [Example 15.43]

SMILES	IC50 [µM]
N#Cc1ccc(COC(=O)N2C[C@@H]3CN(C(=O)c4ccc5[nH]nnc5c4)C[C@H]3C2)c(OC2CCC2)c1 [Example 4.64, (3aS,6aS)-5-(1H-benzotriazole-5-carbonyl)-hexahydro-pyrrolo[3,4-c]pyrrole-2-carboxylic acid 4-cyano-2-cyclobutoxy-benzyl ester]	0.019
O=C(OCc1cc(Cl)cc(Cl)c1)N1C[C@H]2CCN(C(=O)c3ccc4[nH]nnc4c3)C[C@@H]2C1 (relative stereo) [Example 12A, trans-3,5-dichlorobenzyl 5-(1H-benzo[d][1,2,3]triazole-5-carbonyl)-hexahydro-lH-pyrrolo[3,4-c]pyridine-2(3H)-carboxylate]	0.011
